Marks after values point to notes of the source that are not given here.
Experiments:
[1] = system: Pythium aphanidermatum; assay: Test A: bluegrass pythium blight, preventive spray on bluegrass seedlings; details: 200 ppm
[2] = system: fusarium graminearium; assay: Test I: wheat head scab, preventive spray on wheat seedlings; details: 200 ppm
Protocol: (the causal agent of wheat head scab) and incubated in a saturated atmosphere at 20° C. for 72 h, and then moved to a growth chamber at 22° C. for 5 days, after which disease ratings were made.

[3] = system: Rhizoctonia oryzae; assay: Test G: turf brown patch, preventive spray on creeping bent grass seedlings
Protocol: (the causal agent of turf brown patch) and incubated in a saturated atmosphere at 27° C. for 24 h, and then moved to a growth chamber at 27° C. for 5 days, after which disease ratings were made.

[4] = system: Erysiphe graminis f. sp. tritici; assay: Test L: wheat powdery mildew, preventive spray on wheat seedlings
[5] = system: Colletotrichum orbiculare; assay: Test B: cucumber Colletotrichum anthracnose, preventive spray on cucumber seedlings
[6] = system: Botrytis cinerea; assay: Test E: tomato botrytis, preventive spray on tomato seedlings
[7] = system: Septoria nodorum; assay: Test H: wheat glum blotch, preventive spray on wheat seedlings
Protocol: (the causal agent of wheat glum blotch) and incubated in a saturated atmosphere at 20° C. for 48 h, and then moved to a growth chamber at 22° C. for 5 days, after which disease ratings were made.

[8] = system: Plasmopara viticola; assay: Test D: grape downy mildew, spray after inoculation of grape seedlings; format: in vivo; details: 200 ppm
Text: Upon removal, disease ratings were made. […] A dash (-) indicates no test results.

[9] = system: Phytophthora infestans; assay: whole plant or invertebrate; format: in vivo; details: 200 ppm
[10] = system: Septoria tritici; assay: Test J: wheat leaf blotch, preventive spray on wheat seedlings; format: in vivo
Text: A dash (-) indicates no test results.

[11] = system: Sclerotinia sclerotiorum; assay: Test C: cucumber white mold, preventive spray on cucumber seedlings; details: 200 ppm
[12] = system: Puccinia recondita f. sp. tritici; assay: Test K: wheat leaf rust, preventive spray on wheat seedlings

Structure (SMILES) | Test A disease control rating [1] [%] | Test I disease control rating [2] [%] | Test G disease control rating ([3]; 40 ppm (*)) | Test L disease control rating ([4]; 40 ppm (*)) | Test B disease control rating ([5]; 40 ppm (*)) | Test E disease control rating ([6]; 40 ppm (*)) | Test H disease control rating ([7]; 40 ppm (*)) | Test D disease control rating [8] [%] | Test F disease control rating [9] [%] | Test J disease control rating ([10]; 40 ppm (*)) | Test C disease control rating [11] [%] | Test K disease control rating ([12]; 40 ppm (*)) | Test G disease control rating ([3]; 200 ppm) [%] | Test L disease control rating ([4]; 200 ppm) [%] | Test B disease control rating ([5]; 200 ppm) [%] | Test E disease control rating ([6]; 200 ppm) [%] | Test H disease control rating ([7]; 200 ppm) [%] | Test J disease control rating ([10]; 200 ppm) [%] | Test K disease control rating ([12]; 200 ppm) [%]
COCC(C)n1c(-c2c(F)cccc2F)c(Cl)nc(-n2cncn2)c1=O (stereo not drawn) [compound 94] | 0 | 0 | 0* % | 0* % | 0* % | 0* % | 0* % | 0 | 0 | 14* % | 0 | 0* % | – | – | – | – | – | – | –
COCCn1c(-c2c(F)cccc2F)c(Cl)nc(-n2cncn2)c1=O [compound 96] | 0 | 0 | 0* % | 0* % | 0* % | 0* % | 0* % | 0 | 0 | 0* % | 0 | 0* % | – | – | – | – | – | – | –
CSCCn1c(-c2c(F)cccc2F)c(Cl)nc(-n2cccn2)c1=O [compound 97] | 0 | 0 | 0* % | 0* % | 0* % | 100* % | 0* % | 64 | 0 | 24* % | 0 | 0* % | – | – | – | – | – | – | –
CSCCn1c(-c2c(F)cccc2F)c(Cl)nc(-n2cncn2)c1=O [compound 98] | 0 | 0 | 0* % | 0* % | 0* % | 0* % | 0* % | 0 | 0 | 26* % | 0 | 0* % | – | – | – | – | – | – | –
O=c1c(-n2cccn2)nc(Cl)c(-c2c(F)cccc2F)n1Cc1ccccc1 [compound 104] | 0 | 0 | – | – | – | – | – | 9 | 0 | – | 0 | – | 95 | 100 | 100 | 100 | 100 | 100 | 100
COc1cc(OC)c(-c2c(Cl)nc(-n3cncn3)c(=O)n2CC(C)C)c(OC)c1 [compound 112] | 0 | 57 | 0* % | 0* % | 0* % | 0* % | 0* % | 0 | 0 | 0* % | 0 | 0* % | – | – | – | – | – | – | –
CC(C)Cn1c(-c2c(F)cccc2C(F)(F)F)c(Cl)nc(-n2cncn2)c1=O [compound 113] | 0 | 98 | 26* % | 0* % | 0* % | 0* % | 0* % | 0 | 0 | 2* % | 93 | 0* % | – | – | – | – | – | – | –
CC(C)Cn1c(-c2ccc3c(c2)OCO3)c(Cl)nc(-n2cncn2)c1=O [compound 114] | 0 | 0 | 0* % | 0* % | 0* % | 97* % | 99* % | 0 | 0 | 89* % | 0 | 0* % | – | – | – | – | – | – | –

From patent US20080194585A1, “Fungicidal Pyrazine Derivatives” (priority 2005, published 2008)
